Assay [1] deals with HBsAg. The assay is described as follows: HBsAg assay (CLIA) in HepG2.2.15 cells. It counts as cell-based, HBV. The conditions noted are these: Hepatitis B virus, HepG2.2.15, read-out: IC50 (HBsAg assay). As for the experimental part: (§1) HepG2.2.15 cells (Acs et al. Proc Natl Acad Sci USA, 84, (1987), 4641-4), a constitutively HBV-expressing cell line were cultured in DMEM+Glutamax-I medium (Invitrogen, Carlsbad, Calif., USA), supplemented with 10% fetal bovine serum (Invitrogen) and G418 (Invitrogen) at a final concentration of 200 mg/L and maintained in 5% CO2 at 37° C.
HepG2.2.15 cells were seeded in duplicate into white, 96-well plates at 1.5×10^4 cells/well. The cells were treated with a three-fold serial dilution series of the compounds in DMSO. The final DMSO concentration in all wells was 1% and DMSO was used as no drug control.
The HBsAg chemiluminescence immunoassay (CLIA) kit (Autobio Diagnostics Co., Zhengzhou, China, Catalog number: CL0310-2) was used to measure the levels of secreted HBV antigens semi-quantitatively. For the detection 50 μL/well culture supernatant was used and HBsAg was quantified using HBsAg chemiluminescence immunoassay (CLIA) kit (Autobio Diagnostics Co., Zhengzhou, China, Catalog number: CL0310-2), 50 μL of the supernatant was transferred to the CLIA assay plate and 50 μL of enzyme conjugate reagent was added into each well. The plates were sealed and gently agitated for 1 hour at room temperature. The supernatant-enzyme-mixture was discarded and wells were washed 6 times with 300 μL of PBS. The residual liquid was removed by plating the CLIA plate […] on absorbent tissue paper. 25 μL of substrates A and B were added to each well. Luminance was measured using a luminometer (Mithras LB 940 Multimode Microplate Reader) after 10 minutes incubation. Dose-response curves were generated and the IC50 value was extrapolated by using the E-WorkBook Suite (ID Business Solutions Ltd., Guildford, UK). The IC50 was defined as the compound concentration (or conditioned media log dilution) at which HBsAg secretion was reduced by 50% compared to the no drug control.

For assay [2], the system named is HBV DNA. The assay is described as follows: HBV DNA assay (real-time qPCR/TaqMan) in HepG2.2.15 cells. The conditions noted are these: Hepatitis B virus, 144 h, extracellular HBV DNA in supernatant, six days after initial administration, qPCR, read-out: IC50 (Anti HBV DNA production activity). It counts as cell-based. As to the method:
as §1
The assay employs real-time qPCR (TaqMan) to directly measure extracellular HBV DNA copy number in the cell supernatant, HepG2.2.15 cells were plated in 96-well microtiter plates before treatment with complete medium (DMEM, Glutamax, 10% FBS, 1% Penicillin/Streptomycin, 250 μg/mL Genetycin, final DMSO concentration is 1%). Only the interior wells were utilized to reduce “edge effects” observed during cell culture, the exterior wells were filled with complete medium to help minimize sample evaporation. The HepG2.2.15 cells were treated 1 h later with various concentrations of a test compound in duplicate (top concentration used at 5 μM, 2 μM or 0.5 μM according to the HBsAg IC50 observed, with ⅓ successive dilutions (total of 10 dilutions). Six days following the initial administration of the test compound, the cell culture supernatant was collected; DNA extraction was performed by automated system (Magnapure) and then used in a real-time qPCR/TaqMan assay to determine HBV DNA copy numbers. Antiviral activity was calculated from the reduction in HBV DNA levels (IC50).
On the technique in general: Real-time PCR tracks product formation cycle by cycle.

By IC50 is commonly meant the midpoint of a concentration-inhibition curve.

As for `COc1cc(F)nc(N2Cc3nc(-c4ncccn4)ncc3C2C)c1` (centres unmarked) [Example 30, 6-(6-Fluoro-4-methoxy-2-pyridyl)-5-methyl-2-pyrimidin-2-yl-5,7-dihydropyrrolo[3,4-d]pyrimidine], the IC50 in assay [1] came out at 50 nM; in assay [2], 6.5 nM.
